The subject of this experiment is A172, LN229, U87, A549, Hela, PC-3, and MDA-231 cells. The experiment is described as follows: ROS production, DCFDA assay, all used cell lines. The class given is cell-based, human. Particulars: positive control at 500 μM concentration. The method, then:
The reactive oxygen species (ROS) formation on the selected cell lines upon exposure to the synthesized Cu(II) and Pt(II) complexes was investigated using the oxidation-sensitive dye, 2ʹ,7ʹ-dichlorofluorescein diacetate (DCFDA, #D6883 Sigma-Aldrich). The cell lines (A172, LN229, U87, HeLa, MDA-231, PC-3, A549, and CHO-K1) were seeded (6 × 10^3 cells/well) into the 96-well plates and incubated at 37°C and 5% CO2 for 24 h. After that, the Cu(II) and Pt(II) complexes, at a concentration range of 6.25 to 100 μM, were added to the cell monolayers. Hydrogen peroxide (H2O2), at concentrations from 50 to 500 μM, was utilized as a positive control. The following day, 5 μM of DCFDA in PBS was added to the cell monolayers and, then, the plate was incubated for 30–45 min. Consequently, the fluorescence intensity was measured with 485 nm excitation and 535 nm emission wavelengths using a microplate reader. The fluorescence values of each treatment were normalized to the negative control, including only growth medium without any treatment. The assay was repeated in triplicate.

SMILES strings stand for the structures.

As to `OO` [H2O2, Hydrogen peroxide, reference compound], the ROS generation was determined as 3 fold.

Values taken from paper PMC10849753, “Antiproliferative activity of platinum(II) and copper(II) complexes containing novel biquinoxaline ligands” (Metallomics: Integrated Biometal Science, 2024).
